Reference: US8609870B2, “Treating various disorders using TrkB agonists” (Emory University, priority 2008, dated 2013)

Key:
TrkB = TrkB activation in cortical neurons from knockout mouse pups; assay type: cell-based
Description: (§1) To determine whether an identified active compound selectively activates TrkB receptor and prevents neuronal cell death, cortical neurons are prepared from homozygous pups of TrkB +/− mice, which are mated to the same genotype. The activation of TrkB and down stream indicators of TrkB activation, such as Capase-3, are monitored. To further assess whether an identified active compound blocks neuronal apoptosis in a TrkB dependent manner, cortical neurons are prepared from homozygous pups of […], which are mated to the same genotype. Again, the activation of TrkB and down stream indicators of TrkB activation, such as Capase-3, are monitored.
(§2) Additionally, the spontaneous caspase-3 activation in […] was suppressed by deoxygedunin.

mice = assay: Forced swim test; assay type: in vivo, mouse; conditions: for immobility time: TrkB F616A knockin mice
Description: To explore whether an identified active compound has an antidepressant effect like BDNF, a forced swim test is conducted. Adult male mice (2-3 months old) are randomly submitted, without a pre-swim, to a forced swim test of 6 minutes with immobility recorded in the last 4 minutes. The mice are injected intraperitoneally for 5 days with saline, imipramine (20 mg/kg), amitryptyline (15 mg/kg), or an identified active compound (5 mg/kg). The mice are allowed to adapt to the test room for 2 days, and the mice are placed in a clear glass cylinder with a diameter of 16 cm, half-filled with clear water at 24° C.
To investigate whether deoxygedunin mimicked BDNF in suppressing depression-like symptoms, a forced swim test after subchronic treatment of the mice for 5 days with various drugs was conducted. […] To assess whether the behavior responses by 7,8-DHF and deoxygedunin were mediated by TrkB receptor, TrkB F616A knockin mice were used. The transgenic mice were subjected to saline or 1NMPP1 treatment, respectively.

C57BL/6J mice = assay: Tone-shock fear conditioning model; assay type: in vivo, mouse
Description: Following a two-day habituation to testing context, wild-type C57Bl/6J mice (N=28, male, 8-10 weeks old) were fear conditioned in eight identical startle response systems (SR-LAB, SDI) consisting of a nonrestrictive Plexiglas cylinder, 5.5 cm in diameter and 13 cm long, mounted on a Plexiglas platform which was located in a ventilated, sound-attenuated chamber. One hour prior to fear conditioning, mice received […] (N=14, 5 mg/kg, i.p.) or vehicle (N=14, 17% DMSO in PBS). Mice then received 5 tone—footshock pairings, with 30 second 12 kHz, 85 dB tones which co-terminated with the footshocks (intensity of 0.5 mA, 0.5 second) with a 5 minute intertrial interval (ITI), after which they were returned to their homecage. 24 and 48 hrs after training, the mice were tested for freezing in rodent modular test chambers with an inside area of 30.5 cm×24.1 cm×21.0 cm. Three minutes after placing the mouse in the test chamber, fifteen 30 second conditioned stimulus (CS) tones with an ITI of 1.5 min were delivered through a high-frequency speaker attached to the side of each chamber. Percentage time spent freezing during the CS presentations was calculated for each mouse using FreezeFrame (Product Number: ACT-100) (Coulbourn Instruments, Whitehall, Pa.).
To determine whether deoxygeduning would enhance learning in a whole animal model of learning and memory, in which BDNF-dependent TrkB activation was required, a tone-shock fear conditioning model was developed (see FIG. 26). Following habituation to the testing context, 28 adult wild-type, C57BL/6J mice were given systemic injections of deoxygedunin (N=14, 5 mg/kg, i.p.) or vehicle (N=14) 1 hour prior to being subjected to the tone-shock fear conditioning model. […] Mice were then tested, with no additional drug treatment, for cue-conditioned fear in the previously habituated context on the two days following fear acquisition. […] To further explore these effects, individual animals' freezing levels throughout the tone-fear testing sessions were examined. […]

caspase-3 = assay: Caspase-3 activation in cortical neurons from knockout mouse pups; assay type: cell-based
Description: as §1, §2

adult male rats = assay: Transient middle cerebral artery occlusion (MCAO) stroke model; conditions: 2 h MCAO
Erk1/2 and Akt = Erk1/2 and Akt activation in hippocampal neurons (Western blot); assay type: cell-based; conditions: hippocampal neurons
Description: BDNF binding to TrkB induces its autophosphorylation and, subsequently, activation of downstream kinase pathways including MAPK and PI3/Akt. To explore whether an identified active compound triggers TrkB activation, immunofluorescent staining on hippocampal neurons with anti-phospho TrkB antibody is conducted. To examine whether an identified active compound stimulates TrkB-mediated downstream signaling cascades, Western analysis is performed and the activation of Akt and Erk also is monitored. To test whether the stimulatory effect of an identified active compound is mediated through TrkB, cells are either untreated or treated with K252a, a selective inhibitor of the tyrosine kinase activity of the Trk family of neutrophin receptors. Cells treated with K252a block TrkB tyrosine phosphorylation in cells exposed to an identified active compound. To probe the time course of TrkB activation triggered by an identified active compound, hippocampal neurons are treated with an identified active compound at 500 nM and phosphorylation of Erk and Akt is determined over time by Western analysis. Whether stimulation of Erk and Akt by an identified active compound occurs in a dose dependent manner also is determined.
Both Akt and Erk1/2 were robustly activated by these molecules as well). […] The minimal required drug concentration was about 100-250 nM (see FIG. 7, right panels). […] To assess whether deoxygedunin provokes TrkB activation in the brain, mice (i.p.) were injected with a dose of 5 mg/kg for various time points. […] To establish that deoxygedunin is orally bioactive in provoking TrkB activation, two to three month old C57BL/6J mice were orally injected with various doses of 7,8-dihydroxyflavone or deoxygedunin then sacrificed 2 to 4 hours after administration. Brain lysates were prepared and analyzed by immunoblotting (see FIG. 10).

TrkA = TrkA (Mus musculus, UniProt Q3UFB7); assay: TrkA phosphorylation in mouse brain after i.p. injection; assay type: in vivo; set-up: endogenous in cells; conditions: mice, 5 mg/kg i.p.
Sequence of TrkA (Q3UFB7 34-799): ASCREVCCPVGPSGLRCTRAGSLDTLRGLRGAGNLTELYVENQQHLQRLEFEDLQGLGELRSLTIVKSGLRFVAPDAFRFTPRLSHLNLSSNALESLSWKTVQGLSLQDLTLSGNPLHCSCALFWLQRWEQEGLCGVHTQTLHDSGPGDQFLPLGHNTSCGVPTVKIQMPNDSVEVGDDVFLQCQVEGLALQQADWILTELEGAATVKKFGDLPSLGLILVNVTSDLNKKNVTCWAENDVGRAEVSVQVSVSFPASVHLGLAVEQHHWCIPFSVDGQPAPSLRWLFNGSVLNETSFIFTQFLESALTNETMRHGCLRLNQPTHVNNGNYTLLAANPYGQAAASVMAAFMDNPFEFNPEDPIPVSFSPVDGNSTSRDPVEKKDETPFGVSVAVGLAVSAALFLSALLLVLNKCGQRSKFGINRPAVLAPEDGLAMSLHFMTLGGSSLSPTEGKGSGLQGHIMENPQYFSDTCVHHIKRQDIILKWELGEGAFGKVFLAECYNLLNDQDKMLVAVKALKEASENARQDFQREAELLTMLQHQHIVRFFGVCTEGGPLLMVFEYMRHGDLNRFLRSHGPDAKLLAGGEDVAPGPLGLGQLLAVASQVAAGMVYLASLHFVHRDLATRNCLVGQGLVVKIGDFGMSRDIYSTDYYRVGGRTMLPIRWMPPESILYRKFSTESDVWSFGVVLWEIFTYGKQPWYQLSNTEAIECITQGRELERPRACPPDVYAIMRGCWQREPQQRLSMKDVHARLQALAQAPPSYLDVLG

Structure (SMILES): CC(=O)O[C@@H]1C[C@H]2C(C)(C)C(=O)C=C[C@]2(C)[C@H]2CC[C@]3(C)C(=CC(=O)O[C@H]3c3ccoc3)[C@@]21C [deoxygedunin]
- TrkB activation (TrkB; TrkB −/− cortical neurons): not TrkB −/− neurons
- TrkB activation (TrkB; both wild-type and TrkC knockout neurons): strongly provoked TrkB
- TrkB activation (TrkB; wild-type cortical neurons (pups of TrkB +/− mice)): specifically activated TrkB
- immobility time (mice; TrkB blocked by 1NMPP1): did not have a significant effect
- immobility time (mice; saline group): substantially reduced the immobility time
- swimming immobility (mice; mice, subchronic treatment 5 days, imipramine 20 mg/kg, deoxygedunin 5 mg/kg): reduced the immobility
- shock reactivity during fear acquisition training (C57BL/6J mice; 5 mg/kg i.p. 1 hour prior to conditioning, versus vehicle): no difference
- average level of tone-dependent conditioned freezing versus vehicle (C57BL/6J mice; 5 mg/kg i.p. 1 hour prior to training, tested on the two following days): significantly different on both testing days
- increase in the level of freezing during the first set of CS trials (C57BL/6J mice; 5 mg/kg i.p., each testing day, versus vehicle): 2-3 fold
- blockade of glutamate-provoked caspase-3 activation (caspase-3; TrkB −/− cortical neurons): not TrkB −/− neurons
- spontaneous caspase-3 activation (caspase-3; TrkC −/− neurons): suppressed
- glutamate triggered caspase-3 activation (caspase-3; wild-type and TrkC knockout neuron experiment): diminished
- blockade of glutamate-provoked caspase-3 activation (caspase-3; wild-type cortical neurons): substantially blocked
- survival of ischemic insult and treatment (adult male rats; 5 mg/kg): All animals included in the study survived
- infarct volumes (TTC stained sections) (adult male rats; 5 mg/kg 5 minutes prior to reperfusion, 24 hours after MCAO): significantly reduced infarct volumes
- minimal required drug concentration for Erk1/2 and Akt activation (Erk1/2 and Akt): 100 to 250 nM
- Erk1/2 and Akt activation (Erk1/2 and Akt; time course and dose dependency): prominently provoked both Erk1/2 and Akt activation
- TrkA phosphorylation in the brain (TrkA): not TrkA
